Assay results taken from a compilation of properties of binary mixtures (doi:10.1016/j.molliq.2019.03.034).

Experiment: xn = mol fraction of the nth substance listed
Conditions: 100 kPa

C[N+](C)(C)Cc1ccccc1.[Cl-] + O
viscosity [mPa·s]
Conditions	298.15 K	303.15 K	308.15 K	313.15 K	318.15 K
x1 = 0.0001	0.895	0.806	0.723	0.627	0.541
x1 = 0.0003	0.897	0.808	0.726	0.623	0.537
x1 = 0.0005	0.901	–	0.73	0.638	0.552
